Patent US20230151003A1, “COMPOUNDS AND METHODS OF USE” (Exelixis, Inc., priority 2020, published 2023)
pIC50: −log10 of the molar value. Where a name gives a salt, the structure may show the parent alone.

Experiments:
Met = Met (Homo sapiens, UniProt P08581); assay: Met autophosphorylation ELISA in PC-3 cells; type: cell-based; parameters: endogenous in cells; host or cells: PC-3 prostate cancer cells (ATCC #CRL-1435); conditions: Table 3 Cellular Activities, HGF-stimulated, phospho-Met ELISA, read-out: c-Met IC50
In short: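 Serum-starved (3 h) PC-3 cells pre-incubated 1 h with compound (8-point dose curve, 0.3% DMSO), then stimulated with 100 ng/mL recombinant human HGF for 10 min. Lysate phospho-Met (panTyr) measured by sandwich ELISA; IC50 from 4-parameter logistic fit, normalised to DMSO (100%) and reference-inhibitor (0%) controls.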

AXL = target: T1, AXL (Homo sapiens, UniProt P30530); assay: AXL autophosphorylation ELISA in A-172 cells; type: cell-based; conditions: Table 3 Cellular Activities, Gas6-stimulated, phospho-AXL ELISA
T1 construct: endogenous in cells; host or cells: A-172 glioblastoma cells (ATCC #CRL-1620)
T1 sequence (P30530 26-894): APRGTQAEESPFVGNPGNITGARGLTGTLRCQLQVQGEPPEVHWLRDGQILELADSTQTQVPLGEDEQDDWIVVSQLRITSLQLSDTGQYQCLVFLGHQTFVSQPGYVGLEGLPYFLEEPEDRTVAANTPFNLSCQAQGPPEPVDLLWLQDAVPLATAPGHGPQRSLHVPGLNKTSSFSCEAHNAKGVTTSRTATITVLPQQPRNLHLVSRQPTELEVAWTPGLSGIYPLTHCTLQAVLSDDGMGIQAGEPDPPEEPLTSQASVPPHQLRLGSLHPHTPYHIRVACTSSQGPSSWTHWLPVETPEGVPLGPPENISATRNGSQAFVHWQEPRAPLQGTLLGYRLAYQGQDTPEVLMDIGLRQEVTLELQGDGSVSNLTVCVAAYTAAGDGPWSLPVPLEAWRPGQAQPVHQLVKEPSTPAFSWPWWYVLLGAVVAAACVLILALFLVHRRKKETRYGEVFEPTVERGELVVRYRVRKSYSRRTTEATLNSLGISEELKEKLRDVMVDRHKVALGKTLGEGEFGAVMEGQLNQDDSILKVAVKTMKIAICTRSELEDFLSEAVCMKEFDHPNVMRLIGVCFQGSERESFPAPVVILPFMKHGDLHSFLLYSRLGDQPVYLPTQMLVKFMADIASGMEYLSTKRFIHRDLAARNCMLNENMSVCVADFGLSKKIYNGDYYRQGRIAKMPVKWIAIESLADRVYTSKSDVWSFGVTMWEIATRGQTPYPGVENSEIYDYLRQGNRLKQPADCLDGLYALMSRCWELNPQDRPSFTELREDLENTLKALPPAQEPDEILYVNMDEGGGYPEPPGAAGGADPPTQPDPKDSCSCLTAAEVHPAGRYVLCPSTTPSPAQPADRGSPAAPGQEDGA
In short: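 A-172 glioblastoma cells serum-starved 24 h, treated 1 h with compounds (8-point dose curve, 0.3% DMSO), then stimulated with 1 μg/mL Gas6 for 15 min. Lysate phospho-AXL quantified by ELISA against a standard; IC50 from 4-parameter logistic fit, normalised to DMSO and reference-inhibitor controls.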

Chain of Met (P08581 25-1390): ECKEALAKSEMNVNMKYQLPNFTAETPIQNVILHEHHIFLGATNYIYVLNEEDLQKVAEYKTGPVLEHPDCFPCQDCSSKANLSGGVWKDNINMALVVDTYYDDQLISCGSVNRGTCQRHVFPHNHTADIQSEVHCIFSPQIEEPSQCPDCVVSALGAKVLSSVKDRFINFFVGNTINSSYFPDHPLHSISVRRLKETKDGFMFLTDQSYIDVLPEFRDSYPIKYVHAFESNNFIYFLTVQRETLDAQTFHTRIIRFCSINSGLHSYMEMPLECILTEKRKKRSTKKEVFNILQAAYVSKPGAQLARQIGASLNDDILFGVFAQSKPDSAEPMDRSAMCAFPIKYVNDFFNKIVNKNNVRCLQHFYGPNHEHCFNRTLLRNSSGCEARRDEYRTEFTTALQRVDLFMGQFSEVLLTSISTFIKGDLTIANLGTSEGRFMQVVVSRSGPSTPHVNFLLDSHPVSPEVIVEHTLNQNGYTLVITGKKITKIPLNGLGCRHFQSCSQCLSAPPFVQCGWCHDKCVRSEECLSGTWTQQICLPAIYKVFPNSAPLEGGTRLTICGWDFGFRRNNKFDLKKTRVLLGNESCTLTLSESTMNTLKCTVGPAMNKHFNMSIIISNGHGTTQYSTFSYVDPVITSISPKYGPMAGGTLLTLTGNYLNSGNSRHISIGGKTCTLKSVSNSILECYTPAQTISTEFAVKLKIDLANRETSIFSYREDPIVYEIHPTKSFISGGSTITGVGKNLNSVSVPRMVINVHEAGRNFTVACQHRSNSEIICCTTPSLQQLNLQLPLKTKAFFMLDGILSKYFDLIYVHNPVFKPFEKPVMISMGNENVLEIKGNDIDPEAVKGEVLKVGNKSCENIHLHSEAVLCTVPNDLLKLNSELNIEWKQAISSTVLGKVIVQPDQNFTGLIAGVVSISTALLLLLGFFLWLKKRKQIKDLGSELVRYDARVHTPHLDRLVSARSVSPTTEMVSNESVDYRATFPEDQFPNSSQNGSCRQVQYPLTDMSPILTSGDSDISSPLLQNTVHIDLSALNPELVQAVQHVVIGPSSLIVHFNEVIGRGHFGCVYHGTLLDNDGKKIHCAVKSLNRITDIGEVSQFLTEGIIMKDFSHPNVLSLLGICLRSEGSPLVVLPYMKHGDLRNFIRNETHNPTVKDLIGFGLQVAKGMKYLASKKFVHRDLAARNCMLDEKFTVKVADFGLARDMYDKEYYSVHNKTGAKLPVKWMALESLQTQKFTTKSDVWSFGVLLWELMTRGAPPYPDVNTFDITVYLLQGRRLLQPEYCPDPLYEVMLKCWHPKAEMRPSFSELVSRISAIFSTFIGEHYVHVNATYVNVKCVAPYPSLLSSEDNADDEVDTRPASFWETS

pIC50 (Met) | pIC50 (AXL) | SMILES
6.00 to 6.52 | ≥ 7.00 | COc1cc2nccc(Oc3ccc(NC(=O)c4c5n(cc(-c6ccoc6)c4=O)CCOC5)cc3)c2nc1OC [Compound 310, N-[4-[(6,7-Dimethoxy-1,5-naphthyridin-4-yl)oxy]phenyl]-7-(furan-3-yl)-8-oxo-3,4-dihydro-1H-pyrido[2,1-c][1,4]oxazine-9-carboxamide]
6.52 to 7.00 | ≥ 7.00 | COc1cc2nccc(Oc3ccc(NC(=O)c4c5n(cc(-c6cc(C)cs6)c4=O)CCOC5)cc3)c2nc1OC [Compound 303, N-[4-[(6,7-Dimethoxy-1,5-naphthyridin-4-yl)oxy]phenyl]-7-(4-methylthiophen-2-yl)-8-oxo-3,4-dihydro-1H-pyrido[2,1-c][1,4]oxazine-9-carboxamide]
≥ 7.00 | ≥ 7.00 | COc1ccc2nccc(Oc3ccc(NC(=O)c4ccc(C)n(-c5ncc(F)cc5C)c4=O)cc3F)c2n1 [Compound 53, N-[3-Fluoro-4-[(6-methoxy-1,5-naphthyridin-4-yl)oxy]phenyl]-1-(5-fluoro-3-methylpyridin-2-yl)-6-methyl-2-oxopyridine-3-carboxamide]
≥ 7.00 | ≥ 7.00 | COc1cc2nccc(Oc3ccc(NC(=O)c4ncc(C)n(-c5ccc(F)cn5)c4=O)cc3F)c2nc1OC [Compound 219, N-[4-[(6,7-Dimethoxy-1,5-naphthyridin-4-yl)oxy]-3-fluorophenyl]-4-(5-fluoropyridin-2-yl)-5-methyl-3-oxopyrazine-2-carboxamide]
≥ 7.00 | ≥ 7.00 | COc1cc2nccc(Oc3ccc(NC(=O)c4c5n(cc(-c6ccco6)c4=O)CCOC5)cc3F)c2nc1OC [Compound 297, N-[4-[(6,7-Dimethoxy-1,5-naphthyridin-4-yl)oxy]-3-fluorophenyl]-7-(furan-2-yl)-8-oxo-3,4-dihydro-1H-pyrido[2,1-c][1,4]oxazine-9-carboxamide]
6.00 to 6.52 | ≥ 7.00 | COc1cc2nccc(Oc3ccc(NC(=O)c4cc(C(C)=O)c(C)n(-c5ccco5)c4=O)cc3F)c2nc1OC [Compound 236, 5-Acetyl-N-[4-[(6,7-dimethoxy-1,5-naphthyridin-4-yl)oxy]-3-fluorophenyl]-1-(furan-2-yl)-6-methyl-2-oxopyridine-3-carboxamide]
≥ 7.00 | ≥ 7.00 | COc1cnc2c(Oc3ccc(NC(=O)c4cnc(C)c(-c5cccs5)c4O)cc3)ccnc2c1 [Compound 257, 4-Hydroxy-N-[4-[(7-methoxy-1,5-naphthyridin-4-yl)oxy]phenyl]-6-methyl-5-thiophen-2-ylpyridine-3-carboxamide]
≥ 7.00 | ≥ 7.00 | COc1cc2nccc(Oc3ccc(NC(=O)c4cccn(-c5ccc(F)cn5)c4=O)cc3F)c2nc1OC [Compound 42, N-[4-[(6,7-Dimethoxy-1,5-naphthyridin-4-yl)oxy]-3-fluorophenyl]-1-(5-fluoropyridin-2-yl)-2-oxopyridine-3-carboxamide]
≥ 7.00 | 6.52 to 7.00 | Cc1ccc(C(=O)Nc2ccc(Oc3ccnc4cnc(Cl)cc34)c(F)c2)c(=O)n1-c1ccc(F)cn1 [Compound 54A, N-[4-[(6-Chloro-1,7-naphthyridin-4-yl)oxy]-3-fluorophenyl]-1-(5-fluoropyridin-2-yl)-6-methyl-2-oxopyridine-3-carboxamide]
≥ 7.00 | 6.00 to 6.52 | COc1cc2nccc(Oc3ccc(NC(=O)c4cnc(C)c(-c5ccco5)n4)cc3F)c2nc1OC [Compound 269, N-[4-[(6,7-Dimethoxy-1,5-naphthyridin-4-yl)oxy]-3-fluorophenyl]-6-(furan-2-yl)-5-methylpyrazine-2-carboxamide]
≥ 7.00 | ≥ 7.00 | COc1cc2nccc(Oc3ccc(NC(=O)c4c(C)ncc(-c5ccc(F)cn5)c4O)cc3F)c2nc1OC [Compound 68, N-[4-[(6,7-Dimethoxy-1,5-naphthyridin-4-yl)oxy]-3-fluorophenyl]-5-(5-fluoropyridin-2-yl)-4-hydroxy-2-methylpyridine-3-carboxamide]
6.00 to 6.52 | 6.52 to 7.00 | COc1cnc2c(Oc3ccc(NC(=O)c4cc(C(C)=O)c(C)n(-c5ccco5)c4=O)cc3F)ccnc2c1 [Compound 238, 5-Acetyl-N-[3-fluoro-4-[(7-methoxy-1,5-naphthyridin-4-yl)oxy]phenyl]-1-(furan-2-yl)-6-methyl-2-oxopyridine-3-carboxamide]
≥ 7.00 | ≥ 7.00 | COc1cnc2c(Oc3ccc(NC(=O)c4c(C)nc(C)c(-c5ccc(F)cn5)c4O)cc3F)ccnc2c1 [Compound 217, N-[3-Fluoro-4-[(7-methoxy-1,5-naphthyridin-4-yl)oxy]phenyl]-5-(5-fluoropyridin-2-yl)-4-hydroxy-2,6-dimethylpyridine-3-carboxamide]
≥ 7.00 | ≥ 7.00 | COc1cc2nccc(Oc3ccc(NC(=O)c4cc(C(C)=O)c(C)n(-c5ccc(F)cn5)c4=O)cc3F)c2nc1OC [Compound 59, 5-Acetyl-N-[4-[(6,7-dimethoxy-1,5-naphthyridin-4-yl)oxy]-3-fluorophenyl]-1-(5-fluoropyridin-2-yl)-6-methyl-2-oxopyridine-3-carboxamide]
≥ 7.00 | 6.00 to 6.52 | COc1cc2nccc(Oc3ccc(NC(=O)c4cccn(-c5cc[n+]([O-])cc5)c4=O)cc3F)c2nc1OC [Compound 247, N-[4-[(6,7-Dimethoxy-1,5-naphthyridin-4-yl)oxy]-3-fluorophenyl]-1-(1-oxidopyridin-1-ium-4-yl)-2-oxopyridine-3-carboxamide hydrochloride]
≥ 7.00 | ≥ 7.00 | COc1cc2nccc(Oc3ccc(NC(=O)c4c(C)ccn(-c5ccc(F)cn5)c4=O)cc3F)c2nc1OC [Compound 41, N-[4-[(6,7-Dimethoxy-1,5-naphthyridin-4-yl)oxy]-3-fluorophenyl]-1-(5-fluoropyridin-2-yl)-4-methyl-2-oxopyridine-3-carboxamide]
≥ 7.00 | ≥ 7.00 | COc1cc2nccc(Oc3ccc(NC(=O)c4cn(C)c(C)c(-c5ccc(F)cn5)c4=O)cc3)c2nc1OC [Compound 86, N-[4-[(6,7-Dimethoxy-1,5-naphthyridin-4-yl)oxy]phenyl]-5-(5-fluoropyridin-2-yl)-1,6-dimethyl-4-oxopyridine-3-carboxamide]
≥ 7.00 | ≥ 7.00 | CCOc1ccn(-c2ccc(F)cn2)c(=O)c1C(=O)Nc1ccc(Oc2ccnc3cc(OC)c(OC)nc23)c(F)c1 [Compound 243, N-[4-[(6,7-dimethoxy-1,5-naphthyridin-4-yl)oxy]-3-fluorophenyl]-4-ethoxy-1-(5-fluoropyridin-2-yl)-2-oxopyridine-3-carboxamide]
≥ 7.00 | ≥ 7.00 | COc1cc2nccc(Oc3ccc(NC(=O)c4nnc(C)c(-c5ccc(F)cn5)c4OC)cc3F)c2nc1OC [Compound 215, N-[4-[(6,7-Dimethoxy-1,5-naphthyridin-4-yl)oxy]-3-fluorophenyl]-5-(5-fluoropyridin-2-yl)-4-methoxy-6-methylpyridazine-3-carboxamide]
≥ 7.00 | 6.00 to 6.52 | COc1cc2nccc(Oc3ccc(NC(=O)c4cccn(-c5ccnc(O)c5)c4=O)cc3F)c2nc1OC [Compound 248, N-[4-[(6,7-Dimethoxy-1,5-naphthyridin-4-yl)oxy]-3-fluorophenyl]-1-(2-hydroxypyridin-4-yl)-2-oxopyridine-3-carboxamide hydrochloride]
